# Test results as given in paper PMC10489748, “The Anti-Breast Cancer Stem Cell Potency of Copper(I)-Non-Steroidal Anti-Inflammatory Drug Complexes” (Molecules, 2023).
# Where two headings read alike, the source gives them in different places.
# Assays:
# HMLER cells [1] = assay: MTT cytotoxicity assay, bulk breast cancer cells; type: cell-based, human; settings: 72 h incubation
# Protocol: (§1) Exponentially growing cells were seeded at a density of approximately 5 × 10^3 cells per well in 96-well flat-bottomed microplates, and allowed to attach for 24 h prior to the addition of compounds. […] Stock solutions of the compounds were prepared as 10 mM DMSO solutions, and diluted using cell media. […] After 72 h, 20 μL of MTT (4 mg mL^−1 in PBS) was added to each well, and the plates were incubated for an additional 4 h at 37 °C. The media/MTT mixture was eliminated, and DMSO (100 μL per well) was added to dissolve the formazan precipitates. […] Absorbance values were normalised to (DMSO-containing) control wells, and plotted as concentration of compound versus % cell viability. IC50 values were interpolated from the resulting dose-dependent curves.
# HMLER-shEcad cells [2] = assay: MTT cytotoxicity assay, breast CSCs; type: cell-based, human; settings: 72 h incubation
# Protocol: as §1
# BEAS-2B cells = assay: MTT cytotoxicity assay, non-cancerous bronchial epithelium cells; type: cell-based; settings: 72 h incubation
# Protocol: Exponentially growing cells were seeded at a density of approximately 5 × 10^3 cells per well in 96-well flat-bottomed microplates, and allowed to attach for 24 h prior to the addition of compounds. Various concentrations of the test compounds (0.19–100 μM) were added, and the plates were incubated for 72 h at 37 °C (total volume 200 μL). Stock solutions of the compounds were prepared as 10 mM DMSO solutions, and diluted using cell media. The final concentration of DMSO in each well was ≤1 %. After 72 h, 20 μL of MTT (4 mg mL^−1 in PBS) was added to each well, and the plates were incubated for an additional 4 h at 37 °C. The media/MTT mixture was eliminated, and DMSO (100 μL per well) was added to dissolve the formazan precipitates. The optical density was measured at 550 nm, using a 96-well multiscanner autoreader. Absorbance values were normalised to (DMSO-containing) control wells, and plotted as concentration of compound versus % cell viability. IC50 values were interpolated from the resulting dose-dependent curves.
# [3] = test system: HMLER-shEcad mammospheres; assay: Mammosphere viability assay (TOX8); type: cell-based, human; settings: TOX8, 120 h incubation
# Protocol: HMLER-shEcad cells (5 × 10^3) were plated in ultralow-attachment 96-well plates (Corning) and incubated in MEGM supplemented with B27 (Invitrogen), 20 ng mL^−1 EGF, and 4 μg mL^−1 heparin (Sigma), for 5 days. Studies were also conducted in the presence of 1–3, cisplatin and salinomycin (0–133 µM). Mammospheres treated with 1–3, cisplatin, and salinomycin (0.5 µM, 5 days) were counted and imaged, using an inverted microscope. The viability of the mammospheres was determined via the addition of a resazurin-based reagent, TOX8 (Sigma). After incubation for 16 h, the fluorescence of the solutions was read at 590 nm (λex = 560 nm). Viable mammospheres reduce the amount of the oxidised TOX8 form (blue) and, concurrently, increase the amount of the fluorescent TOX8 intermediate (red), indicating the degree of mammosphere cytotoxicity caused by the test compound. Fluorescence values were normalised to DMSO-containing controls, and plotted as concentration of test compound versus % mammospheres viability. IC50 values were interpolated from the resulting dose-dependent curves. The reported IC50 values are the average of two independent experiments, each consisting of two replicates per concentration level (n = 4).
# HMLER-shEcad cells [4] = assay: Intracellular ROS assay (DCFH-DA); type: cell-based, human; settings: 2 × IC50 value
# Protocol: HMLER-shEcad cells (5 × 10^3) were seeded in each well of a 96-well plate. […] The intracellular ROS level was determined via measurement of the fluorescence of the solutions in each well at 529 nm (λex = 504 nm).
# HMLER cells [5] = settings: 72 h incubation, cited from earlier work
# HMLER-shEcad cells [6] = settings: 72 h incubation, cited from earlier work
# [7] = test system: HMLER-shEcad mammospheres; design: method as in PMID 26806362, PMID 31588328, PMID 28932846, PMID 31209956; settings: 120 h incubation, ref [14],[37],[39],[40], read-out: Mammosphere IC50; cited from earlier work
# [8] = Water–octanol partition coefficient (LogP), shake-flask method and ICP-MS; type: physicochemical; settings: water/1-octanol, room temperature, 24 h
# Protocol: The 1-octanol used in this experiment was pre-saturated with water. […] The tube was shaken at room temperature for 24 h. The two phases were separated via centrifugation, and the copper content in the water phase was determined via ICP-MS.
# [9] = ref [1,2] of the SI (Eskandari et al. 2016; Eskandari, Suntharalingam 2019)
structure (smiles),measurement,setting,value
"O=C([O-])Cc1ccccc1Nc1c(Cl)cccc1Cl.[Cu+].c1ccc(P(c2ccccc2)c2ccccc2)cc1.c1ccc(P(c2ccccc2)c2ccccc2)cc1 [compound 1, [Cu^I(diclofenac)(PPh3)2]]",IC50,HMLER cells [1],2.42 ± 0.1 µM
same,IC50,HMLER-shEcad cells [2],4.61 ± 0.18 µM
same,IC50,BEAS-2B cells,4.32 ± 0.13 µM
same,IC50,[3],18.2 ± 2.02 µM
same,Increase in ROS levels compared to untreated control cells,HMLER-shEcad cells [4]; 1 h exposure,76%
same,Change of intracellular ROS status,HMLER-shEcad cells [4]; exposure beyond 1 h (3–24 h),did not markedly alter
O=C(O)Cc1ccccc1Nc1c(Cl)cccc1Cl [diclofenac],IC50,HMLER cells [5]; [9],69.5 ± 8.7 µM
same,IC50,HMLER-shEcad cells [6]; [9],54.74 ± 0.23 µM
CC[C@@H](C(=O)[C@@H](C)[C@@H](O)[C@H](C)[C@@H]1O[C@@H]([C@@H](CC)C(=O)O)CC[C@@H]1C)[C@H]1O[C@]2(C=C[C@@H](O)[C@]3(CC[C@@](C)([C@H]4CC[C@](O)(CC)[C@H](C)O4)O3)O2)[C@H](C)C[C@@H]1C [salinomycin],IC50,"HMLER cells [5]; ref [14],[37],[39],[40]",11.4 ± 0.42 µM
same,IC50,"HMLER-shEcad cells [6]; ref [14],[37],[39],[40]",4.23 ± 0.35 µM
same,IC50,[7],18.5 ± 1.5 µM
"O=C([O-])c1ccccc1O.[Cu+].c1ccc(P(c2ccccc2)c2ccccc2)cc1.c1ccc(P(c2ccccc2)c2ccccc2)cc1 [compound 3, [Cu^I(salicylate)(PPh3)2]]",LogP,[8],0.82 ± 0.002
same,IC50,HMLER cells [1],2.13 ± 0.002 µM
same,IC50,HMLER-shEcad cells [2],4.55 ± 0.001 µM
same,IC50,BEAS-2B cells,3.53 ± 0.21 µM
same,IC50,[3],13.6 ± 0.74 µM
same,Increase in ROS levels,HMLER-shEcad cells [4]; 16 h exposure,191%
same,Increase in ROS levels,HMLER-shEcad cells [4]; 24 h exposure,75%
"COc1ccc2cc(C(C)C(=O)[O-])ccc2c1.[Cu+].c1ccc(P(c2ccccc2)c2ccccc2)cc1.c1ccc(P(c2ccccc2)c2ccccc2)cc1 [compound 2, [Cu^I(naproxen)(PPh3)2]]",IC50,HMLER cells [1],2.36 ± 0.03 µM
same,IC50,HMLER-shEcad cells [2],4.46 ± 0.08 µM
same,IC50,BEAS-2B cells,4.11 ± 0.001 µM
same,IC50,[3],11.8 ± 0.7 µM
same,Increase in ROS levels,HMLER-shEcad cells [4]; 16 h exposure,41%
same,Increase in ROS levels,HMLER-shEcad cells [4]; 24 h exposure,32%
N.N.[Cl][Pt][Cl] [cisplatin],IC50,"HMLER cells [5]; ref [14],[37],[39],[40]",2.57 ± 0.02 µM
same,IC50,"HMLER-shEcad cells [6]; ref [14],[37],[39],[40]",5.65 ± 0.3 µM
same,IC50,[7],13.5 ± 2.34 µM
COc1ccc2cc([C@H](C)C(=O)O)ccc2c1 [naproxen],IC50,HMLER cells [5]; [9],> 100 µM
same,IC50,HMLER-shEcad cells [6]; [9],> 100 µM
